Source: patent US20230234938A1 (RHIZEN PHARMACEUTICALS AG, priority 2020, published 2023)
Read-outs that look alike come from different tables or passages of the source.

Experiments:
[1] = tested on: PAR in UWB 1.289 cells; assay: PAR inhibition in UWB 1.289 cells (western blot); format: cell-based, human; conditions: for PAR % inhibition in UWB 1.289 @ 10 nM: 0.01 µM; for inhibition at 0.01 µM: Homo sapiens
Description: Example-3 UWB 1.289 cells were plated at a predetermined density in a 6-well plate in its respective media and plates were incubated at 37° C. and 5% CO2 overnight. After overnight incubation, the plates were treated with desired concentrations of the compound or DMSO and the plates were incubated at 37° C. and 5% CO2 as required for 24 hours. After completion of 24 hours incubation, total cell lysates were prepared from the treated samples. Lysates were analysed by western-blot analysis and probed with Human PAR specific monoclonal antibody or human specific beta-actin monoclonal antibody (loading control). Western-blot images were developed after exposing them to chemiluminescent substrate and images were captured on imaging system. Target specific bands and loading specific bands were measured using densitometric analysis. Densitometric values of target specific bands were normalized to loading control values. % inhibition of PAR was calculated relative to DMSO treated samples. Results: % inhibitions values are given below in Table-2: […]

[2] = molecular target: PARP2 (Homo sapiens, UniProt Q9UGN5); assay: PARP enzyme assay (PARP2); format: biochemical
Source text: Step 2: Ribosylation Reaction

[3] = molecular target: PARP1 (Homo sapiens, UniProt P09874); assay: PARP enzyme assay (PARP1, chemiluminescent histone ribosylation); conditions: for % inhibition 10 nM / % inhibition 100 nM: PARP enzyme assay; for % inhibition 10 nM: 10 nM compound; for % inhibition 100 nM: 100 nM compound
Description: 1) Coat 25 µL of histone solution onto a 384-well plate as described below: • Dilute 5x histone mixture 1:5 with PBS. • Add 25 µL of diluted histone solution to each well and incubate at 4° C. overnight. • Wash the plate three times using 100 µL PBST buffer (1x PBS containing 0.05% Tween20) per well. • Tap plate onto clean paper towel to remove liquid. • Block the wells by adding 100 µL of Blocking buffer 3 to every well. Incubate at room temperature for 1 h 15 minutes. • Wash plate three times with 100 µL PBST buffer as described above. • Tap plate onto clean paper towel to remove liquid.
1) Preparation of 1X PARP Buffer: • Prepare 1x PARP buffer by adding 1 part of 10x PARP buffer to 9 parts distilled water (v/v). To prepare 500 µL of 1X PARP buffer, add 50 µL 10X PARP Assay buffer to 450 µL of H2O and mix well.
2) Preparation of the Ribosylation master mixture: • N wells x (1.25 µL 10x PARP buffer + 1.25 µL 10X PARP Assay mixture + 2.5 µL Activated DNA + 7.5 µL distilled water). Add 12.5 µL to every well.
3) Preparation of the inhibitor solution: • 10 mM stock solution of the inhibitor was prepared in DMSO. From 10 mM stock solution, 250X concentrations of the inhibitor were made in DMSO. • 250X DMSO concentrations of the inhibitor were further diluted to 10X concentrations in 1X kinase buffer. • 2.5 µL (10X concentrations) of kinase buffer containing inhibitor was added to each well. • For the “Positive Control” and “Blank”, add 2.5 µL of kinase buffer containing DMSO (4%) was added. • The final DMSO concentration in the well was 0.4 %.
4) Preparation of the enzyme solution: • Thaw PARP1 enzyme on ice. Upon first thaw, briefly spin tube containing enzyme to recover full content of the tube. Calculate the amount of PARP1 required for the assay and dilute enzyme to 2.0 ng/µL with 1x PARP buffer. • Initiate reaction by adding 10 µL of diluted PARP1 enzyme to the wells designated “Positive Control” and “Test Inhibitor”. • To the wells designated as “Blank”, add 10 µL of 1X PARP buffer. • Centrifuge the plate at 1000 rpm for 30 seconds and incubate at room temperature for 60 min. • Discard the reaction mixture after 1 hour, and wash plate three times with 100 µL PBST buffer and tap plate onto clean paper towel as described above.
1) Preparation of Streptavidin-HRP: • Dilute Streptavidin-HRP 1:50 in Blocking buffer. • Add 25 µL of diluted Streptavidin-HRP to each well. Incubate for 30 min. at room temperature. • Wash three times with 100 µL PBST buffer and tap plate onto clean paper towel as above as described above.
2) Preparation of ECL substrate: • Just before use, mix on ice equal amounts of ELISA ECL Substrate A and ELISA ECL Substrate B and add 50 µL per well. • Immediately read the plate in microtiter-plate in Chemiluminescence setting. The “Blank” value is subtracted from all other values.

[4] = UWB 1.289 cells, 10 nM, 24 hours, western blot relative to DMSO
[5] = UWB1289, read-out: PAR % inhibition in UWB 1.289 @ 10 nM, UWB 1.289 cells, 10 nM, 24 hours, western blot relative to DMSO
[6] = UWB1289, 24 h, read-out: PAR % inhibition in UWB 1.289 @ 10 nM, UWB 1.289 cells, 10 nM, 24 hours, western blot relative to DMSO
[7] = read-out: % inhibition 100 nM, PARP enzyme assay, 100 nM compound

PARP2, sequence (Q9UGN5 whole entry, species assumed): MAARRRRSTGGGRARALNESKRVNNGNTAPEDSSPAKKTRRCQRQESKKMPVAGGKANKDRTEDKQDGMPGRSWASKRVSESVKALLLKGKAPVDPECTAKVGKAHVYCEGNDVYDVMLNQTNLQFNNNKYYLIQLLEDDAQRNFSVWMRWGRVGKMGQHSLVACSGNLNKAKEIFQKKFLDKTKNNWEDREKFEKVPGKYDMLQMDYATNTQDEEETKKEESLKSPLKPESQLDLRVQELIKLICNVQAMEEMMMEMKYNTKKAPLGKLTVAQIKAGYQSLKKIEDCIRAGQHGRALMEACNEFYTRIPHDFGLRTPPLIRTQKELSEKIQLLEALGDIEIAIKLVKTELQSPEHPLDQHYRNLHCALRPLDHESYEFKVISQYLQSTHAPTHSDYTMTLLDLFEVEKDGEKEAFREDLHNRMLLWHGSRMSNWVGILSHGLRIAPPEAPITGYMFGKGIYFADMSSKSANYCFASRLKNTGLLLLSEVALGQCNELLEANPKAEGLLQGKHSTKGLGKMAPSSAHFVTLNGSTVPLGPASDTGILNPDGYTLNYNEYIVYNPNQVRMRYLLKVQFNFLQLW
PARP1, sequence (P09874 whole entry, species assumed): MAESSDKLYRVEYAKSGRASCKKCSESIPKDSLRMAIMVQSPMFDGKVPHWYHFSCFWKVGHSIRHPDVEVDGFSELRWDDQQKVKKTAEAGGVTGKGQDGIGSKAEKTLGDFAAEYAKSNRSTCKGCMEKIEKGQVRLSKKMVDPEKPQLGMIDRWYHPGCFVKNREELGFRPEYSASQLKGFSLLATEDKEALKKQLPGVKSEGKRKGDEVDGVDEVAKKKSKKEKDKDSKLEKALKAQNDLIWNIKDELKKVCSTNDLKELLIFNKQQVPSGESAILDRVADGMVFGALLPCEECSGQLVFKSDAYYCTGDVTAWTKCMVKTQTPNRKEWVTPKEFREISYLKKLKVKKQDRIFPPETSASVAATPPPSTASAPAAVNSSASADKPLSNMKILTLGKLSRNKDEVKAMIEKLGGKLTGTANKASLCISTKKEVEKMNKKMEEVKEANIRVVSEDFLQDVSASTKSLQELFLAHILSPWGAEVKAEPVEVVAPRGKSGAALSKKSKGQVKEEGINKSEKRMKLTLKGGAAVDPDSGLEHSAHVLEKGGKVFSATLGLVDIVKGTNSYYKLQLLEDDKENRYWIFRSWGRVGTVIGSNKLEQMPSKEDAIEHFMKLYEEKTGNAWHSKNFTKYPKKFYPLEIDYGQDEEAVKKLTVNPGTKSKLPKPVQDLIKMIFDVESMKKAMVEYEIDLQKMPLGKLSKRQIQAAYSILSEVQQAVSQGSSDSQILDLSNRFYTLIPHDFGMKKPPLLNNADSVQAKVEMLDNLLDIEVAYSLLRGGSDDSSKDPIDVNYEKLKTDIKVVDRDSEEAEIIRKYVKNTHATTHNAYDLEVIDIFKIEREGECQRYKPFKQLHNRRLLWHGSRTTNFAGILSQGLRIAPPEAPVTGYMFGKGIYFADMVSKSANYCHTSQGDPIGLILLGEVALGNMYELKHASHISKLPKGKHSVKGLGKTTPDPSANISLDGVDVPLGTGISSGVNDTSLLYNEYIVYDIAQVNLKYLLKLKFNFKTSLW

SMILES | PAR % inhibition in UWB 1.289 @ 10 nM [1, 4] | melting point | IC50 [2] | inhibition at 0.01 µM [1, 5] | IC50 [3] | further results
CC1(O)C(=O)N(c2cncc(Cc3n[nH]c(=O)c4cc(F)ccc34)c2)c2ccccc21 (single isomer, unassigned; (+)) [Example 7, (+)-7-Fluoro-4-((5-(3-hydroxy-3-methyl-2-oxoindolin-1-yl)pyridin-3-yl)methyl)phthalazin-1(2H)-one] | A (A represents >75% to 100%) | 148 to 151 °C | < 10 nM | – | – | –
CC1(O)C(=O)N(c2cncc(Cc3n[nH]c(=O)c4ccccc34)c2)c2ccc(F)cc21 (single isomer, unassigned; (-)) [Example 15, (-)-4-((5-(5-Fluoro-3-hydroxy-3-methyl-2-oxoindolin-1-yl)pyridin-3-yl)methyl)phthalazin-1(2H)-one] | D (D represents ≤25%) | 197 to 200 °C | < 10 nM | – | – | % inhibition 10 nM ([3]; 0.01 µM): A (A represents >75% to 100%); % inhibition 100 nM [3]: A (A represents >75% to 100%); IC50 ([3]; read-out: IC50 (nM)-PARP1): < 10 nM
CC1(O)C(=O)N(c2cc(Cc3n[nH]c(=O)c4cc(F)ccc34)ccn2)c2ccc(F)cc21 (centres unmarked) [Example 24, 7-Fluoro-4-((2-(5-fluoro-3-hydroxy-3-methyl-2-oxoindolin-1-yl)pyridin-4-yl)methyl)phthalazin-1(2H)-one] | – | 225 to 228 °C | < 10 nM | 25 to 50% | < 10 nM | –
CC1(O)C(=O)N(c2cc(Cc3n[nH]c(=O)c4ccccc34)ccn2)c2ccccc21 (single isomer, unassigned; (+)) [Example 20, (+)-4-((2-(3-Hydroxy-3-methyl-2-oxoindolin-1-yl)pyridin-4-yl)methyl)phthalazin-1(2H)-one] | – | 205 to 208 °C | < 10 nM | – | – | inhibition at 0.01 µM [1, 6]: 50 to 75%; % inhibition 10 nM [3]: A (A represents >75% to 100%); % inhibition 100 nM [3]: A (A represents >75% to 100%); IC50 ([3]; read-out: IC50 (nM)-PARP1): < 10 nM
CC1(O)C(=O)N(c2cc(Cc3n[nH]c(=O)c4cc(F)ccc34)ccn2)c2ccccc21 (single isomer, unassigned; (-)) [Example 22, (-)-7-Fluoro-4-((2-(3-hydroxy-3-methyl-2-oxoindolin-1-yl)pyridin-4-yl)methyl)phthalazin-1(2H)-one] | – | 165 to 168 °C | < 10 nM | – | – | inhibition at 0.01 µM [1, 6]: 25 to 50%
O=C1N(c2cncc(Cc3n[nH]c(=O)c4ccccc34)c2)c2ccccc2C1(O)C(F)(F)F (centres unmarked) [Example 25, 4-((5-(3-Hydroxy-2-oxo-3-(trifluoromethyl)indolin-1-yl)pyridin-3-yl)methyl)phthalazin-1(2H)-one] | – | 258 to 260 °C | < 10 nM | 25 to 50% | < 10 nM | inhibition at 0.01 µM ([3]; read-out: % inhibition 10 nM): 75 to 100%; inhibition at 0.1 µM ([3]; read-out: % inhibition 100 nM): 75 to 100%
CC1(O)C(=O)N(c2cc(Cc3n[nH]c(=O)c4cc(F)ccc34)ccn2)c2ccccc21 (centres unmarked) [Example 21, 7-Fluoro-4-((2-(3-hydroxy-3-methyl-2-oxoindolin-1-yl)pyridin-4-yl)methyl)phthalazin-1(2H)-one] | – | 187 to 189 °C | > 10 nM | 25 to 50% | – | –
CC1(O)C(=O)N(c2cncc(Cc3n[nH]c(=O)c4cc(F)ccc34)c2)c2ccc(F)cc21 (single isomer, unassigned; (-)) [Example 12, (-)-7-Fluoro-4-((5-(5-fluoro-3-hydroxy-3-methyl-2-oxoindolin-1-yl)pyridin-3-yl)methyl)phthalazin-1(2H)-one] | D (D represents ≤25%) | 154 to 157 °C | < 10 nM | – | – | % inhibition 10 nM [3]: A (A represents >75% to 100%); % inhibition 100 nM [3]: A (A represents >75% to 100%); IC50 ([3]; read-out: IC50 (nM)-PARP1): < 10 nM
C[C@@]1(O)C(=O)N(c2cncc(Cc3n[nH]c(=O)c4ccccc34)c2)c2ccccc21 [Example 3, (S)-(-)-4-((5-(3-Hydroxy-3-methyl-2-oxoindolin-1-yl)pyridin-3-yl)methyl)phthalazin-1(2H)-one] | – | 94 to 97 °C | < 10 nM | – | < 10 nM | inhibition at 0.01 µM [1, 6]: < 25%
CC1(O)C(=O)N(c2cncc(Cc3n[nH]c(=O)c4cc(F)ccc34)c2)c2ccc(F)cc21 (single isomer, unassigned; (+)) [Example 11, (+)-7-Fluoro-4-((5-(5-fluoro-3-hydroxy-3-methyl-2-oxoindolin-1-yl)pyridin-3-yl)methyl)phthalazin-1(2H)-one] | A (A represents >75% to 100%) | 148 to 151 °C | < 10 nM | – | < 10 nM | inhibition at 0.01 µM ([3]; read-out: % inhibition 10 nM, PARP enzyme assay, 10 nM compound): 75 to 100%; inhibition at 0.1 µM [3, 7]: 75 to 100%
CC1(O)C(=O)N(c2cncc(Cc3n[nH]c(=O)c4ccccc34)c2)c2ccccc21 (centres unmarked) [Example 1, 4-((5-(3-Hydroxy-3-methyl-2-oxoindolin-1-yl)pyridin-3-yl)methyl)phthalazin-1(2H)-one] | – | 110 to 113 °C | < 10 nM | 50 to 75% | < 10 nM | inhibition at 0.01 µM ([3]; read-out: % inhibition 10 nM): 75 to 100%; inhibition at 0.1 µM ([3]; read-out: % inhibition 100 nM): 75 to 100%
CC1(O)C(=O)N(c2cncc(Cc3n[nH]c(=O)c4cc(F)ccc34)c2)c2ccccc21 (single isomer, unassigned; (-)) [Example 8, (-)-7-Fluoro-4-((5-(3-hydroxy-3-methyl-2-oxoindolin-1-yl)pyridin-3-yl)methyl)phthalazin-1(2H)-one] | C (C represents >25% to ≤50%) | 138 to 141 °C | < 10 nM | – | – | –
CC1(O)C(=O)N(c2cncc(Cc3n[nH]c(=O)c4ccccc34)c2)c2ccc(F)cc21 (single isomer, unassigned; (+)) [Example 14, (+)-4-((5-(5-Fluoro-3-hydroxy-3-methyl-2-oxoindolin-1-yl)pyridin-3-yl)methyl)phthalazin-1(2H)-one] | A (A represents >75% to 100%) | 198 to 201 °C | < 10 nM | – | < 10 nM | % inhibition 10 nM ([3]; 0.01 µM): B (B represents >50% to ≤75%); inhibition at 0.1 µM [3, 7]: 75 to 100%
